What was measured:
Assay type in all cases: cell-based
[1] = system: Aggregatibacter actinomycetemcomitans; assay: Mixed culture (dual-species) competition, selective plating; details: C: with S. salivarius; after only 24 h
Experimental: (§1) The pathogenic species Prevotella intermedia, Aggregatibacter actinomyctemcomitans, Porphyromonas gingivalis, Fusobacterium nucleatum, Streptococcus mutans and beneficial species Streptococcus salivarius are used as model organisms for experiments. Bacterial strains are grown on blood agar plates (Oxoid, Basingstoke, UK) supplemented with 5 μg/ml hemin (Sigma Chemical Co, St. Louis, Mo.), 1 μg/ml menadion and 5% sterile horse blood (Biotrading, Keerbergen, Belgium). Bacteria are collected from blood agar plates and transferred to 10 ml brain heart infusion broth (BHI) (Difco Laboratories, Detroit, Mich.). P. intermedia, P. gingivalis, and F. nucleatum were incubated overnight at 37° C. in an anaerobic atmosphere, A. actinomycetemcomitans, S. mutans and S. salivarius are incubated overnight at 37° C. in a 5% CO2 environment. Bacterial concentration is adjusted by measuring optical density at 600 nm.
(§2) In vitro effect of β-methyl-D-galactoside on pathogens: Bacterial solutions of periodontopathogens, P. intermedia, F. nucleatum, A. actinomycetemcomitans and P. gingivalis, cariogenic species S. mutans and beneficial species, S. salivarius, are prepared of which the optical density was adjusted to 1×10^7 CFU/ml. Experiments are carried out as a dual-species model in 24 well plates containing one pathogen (1 ml) and S. salivarius (1 ml). Different conditions are tested: the two microorganisms with (C) or without (D) β-methyl-D-galactoside (200 μl, dissolved in AD (aqua distillata)), only the periodontopathogen with (B) or without (A) β-methyl-D-galactoside (200 μl). β-methyl-D-galactoside is used at a final concentration of 1 mg/ml. When S. salivarius is not added to the mixture, BHI is added to obtain an equal volume. When β-methyl-D-galactoside is not added to the mixture, AD was added to obtain an equal volume. Plates are incubated at 37° C. in an anaerobic atmosphere. Selective microbial plating is carried out at 0 h, 24 h, and 48 h. Selective agar plates are prepared for each bacterium. P. intermedia and P. gingivalis are cultured on CDC anaerobe 5% sheep blood agar (Becton Dickinson, Franklin Lakes, N.J.), A. actinomycetemcomitans on Tryptic soy serum bacitracin vancomycin agar (TSBV) (Oxoid, Basingstoke, UK), F. nucleatum on crystal violet erythromycin (CVE) agar (Oxoid, Basingstoke, UK), S. mutans on tryptone yeast extract cystine sucrose bacitracin (TYCSB) agar (Oxoid, Basingstoke, UK) and S. salivarius on Phenylethyl alcohol agar (Becton Dickinson, Franklin Lakes, N.J.).
(§3) Statistical analysis: For statistical analysis of the data, the data are log10 transformed to obtain a normal distribution. A linear mixed model is built to assess differences between treatments. A correction for multiple hypothesis testing is carried out.

Fusobacterium nucleatum = assay: as above; details: C: with S. salivarius; after 48 h
Experimental: as §1, §2, §3

Porphyromonas gingivalis = assay: as above; details: C: with S. salivarius; after only 24 h
Experimental: as §1, §2, §3

Prevotella intermedia = assay: as above; details: C: with S. salivarius; after 48 h
Experimental: as §1, §2, §3

Streptococcus mutans = assay: as above; details: β-methyl-D-galactoside and S. salivarius present; p=0.9999
Experimental: as §1, §2, §3

[2] = system: beneficial oral and pathogenic oral bacteria; assay: Twenty-four hour optical density, conclusion over the panel; details: at concentrations of 10, 20 and 25 μmol/ml; threshold 1.25
From the text: Substrates that were able to increase the growth (or maximal growth density or extent of growth) of at least one of the above beneficial bacteria while not or only minimally increasing the growth (or maximal growth density) of the pathogenic bacteria are considered to be prebiotic compounds. The extent of growth of the tested bacteria in response to selected glycosides (β-methyl-D-galactoside and α-methyl-D-galactoside) was investigated by setting up growth curves in a nutritionally rich medium (brain heart infusion broth (BHI), Oxoid), over 24 hours. […] For each combination of bacterium/glycoside, and for each of their respective controls (i.e. the particular bacterium in the nutritionally rich medium with no glycoside), the optical density was measured at 630 nm (OD630) at 0 h and 24 h (Thermo Scientific Multiskan Ascent). Additionally, the OD630 for combinations of bacterium/glycosides grown in a 5% CO2 environment were also measured every hour between 0 h and 9 h. […] For each day and for each combination, the average (mean) of the values obtained (as detailed above) for the four technical replicas was calculated to provide a single value for each combination on each day. […]

periodontopathogens = assay: Mixed culture competition, conclusion over periodontopathogens; details: S. salivarius and β-methyl-D-galactoside added (C) compared with A, B, after 24 h and 48 hours, p<0.001
Experimental: as §1
In vitro effect of β-methyl-D-galactoside on pathogens: Bacterial solutions of periodontopathogens, P. intermedia, F. nucleatum, A. actinomycetemcomitans and P. gingivalis, cariogenic species S. mutans and beneficial species, S. salivarius, are prepared of which the optical density was adjusted to 1×10^7 CFU/ml. Experiments are carried out as a dual-species model in 24 well plates containing one pathogen (1 ml) and S. salivarius (1 ml). […]

SMILES: CO[C@@H]1O[C@H](CO)[C@H](O)[C@H](O)[C@H]1O [β-methyl-D-galactoside]
- concentration of pathogen, in words [1]: decline in concentration to zero
- pathogen numbers, in words (Fusobacterium nucleatum): significantly lower but remained slightly above zero
- concentration of pathogen, in words (Porphyromonas gingivalis): decline in concentration to zero
- pathogen numbers, in words (Prevotella intermedia): significantly lower but remained slightly above zero
- reduction of pathogen, in words (Streptococcus mutans): no reduction is observed
- prebiotic effect (extent of growth), in words [2]: exhibited prebiotic effects
- number of periodontopathogens, in words (periodontopathogens): significant decrease
